Active and inactive are the calls of the source.
Assays:
Caspase-7 = molecular target: T1, Caspase-7 (Homo sapiens, UniProt P55210); assay: caspase-7 enzyme inhibition, selectivity check – biochemical, DEVD-R110 fluorescence, cherry-pick, selectivity assay for caspase-6 inhibitor project, dose response (AID 743295); assay type: functional
T1 sequence (P55210 whole entry): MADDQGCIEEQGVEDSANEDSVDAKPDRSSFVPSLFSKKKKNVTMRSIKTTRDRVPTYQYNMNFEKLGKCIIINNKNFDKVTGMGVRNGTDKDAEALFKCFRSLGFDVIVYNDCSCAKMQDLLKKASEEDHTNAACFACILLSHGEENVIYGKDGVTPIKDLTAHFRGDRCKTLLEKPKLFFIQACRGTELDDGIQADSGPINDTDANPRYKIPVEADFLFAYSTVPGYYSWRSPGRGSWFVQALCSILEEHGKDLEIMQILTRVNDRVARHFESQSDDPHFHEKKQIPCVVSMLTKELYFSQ

Caspase-8 = Caspase-8 (Homo sapiens, UniProt Q14790); assay: inhibitors of purified CASP8 protease – biochemical, Z-IETD-R110 fluorescence, cherry-picked samples, selectivity assay for caspase-6 inhibitor project, dose response (AID 743294)
Caspase-8, sequence (Q14790 217-374 limits assumed): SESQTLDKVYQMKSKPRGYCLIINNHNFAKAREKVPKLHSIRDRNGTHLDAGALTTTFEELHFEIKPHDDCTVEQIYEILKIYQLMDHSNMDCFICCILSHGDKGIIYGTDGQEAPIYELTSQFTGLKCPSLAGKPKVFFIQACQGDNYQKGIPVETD
Caspase-8, sequence (Q14790 385-479 limits assumed): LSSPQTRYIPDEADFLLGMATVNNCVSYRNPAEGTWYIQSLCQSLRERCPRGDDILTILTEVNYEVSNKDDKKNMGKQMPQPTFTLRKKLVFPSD

[1] = molecular target: T2, Microphthalmia-associated transcription factor (Homo sapiens, UniProt O75030); assay: reducers of TRPM1 reporter luminescence, concentration series – cell-based, SK-MEL-5, cherry-picked, set 3, MITF inhibitor project, dose response (AID 493073); assay type: functional;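 further: SK-MEL-5 melanoma cells with luciferase driven by the MITF target TRPM1 promoter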
T2 sequence (O75030 whole entry): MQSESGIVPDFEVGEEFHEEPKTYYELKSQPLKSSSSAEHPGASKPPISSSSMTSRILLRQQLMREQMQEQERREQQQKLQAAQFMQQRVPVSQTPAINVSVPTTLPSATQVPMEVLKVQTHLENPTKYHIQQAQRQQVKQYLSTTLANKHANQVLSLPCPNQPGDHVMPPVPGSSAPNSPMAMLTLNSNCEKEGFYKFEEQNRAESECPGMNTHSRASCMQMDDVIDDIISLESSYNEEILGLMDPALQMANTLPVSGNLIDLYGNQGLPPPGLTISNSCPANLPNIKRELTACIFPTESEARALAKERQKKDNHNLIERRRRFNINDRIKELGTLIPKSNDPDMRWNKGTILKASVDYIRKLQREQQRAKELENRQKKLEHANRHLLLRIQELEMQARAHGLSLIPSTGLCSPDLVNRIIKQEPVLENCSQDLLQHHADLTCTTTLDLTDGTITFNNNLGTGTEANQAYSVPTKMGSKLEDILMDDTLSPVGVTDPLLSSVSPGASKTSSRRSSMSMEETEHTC

[2] = HEK-293T cell viability reduction – luminescence, B-cell screen hits, cytotoxicity control for BCR NF-kB inhibitor project, dose response (AID 489021); assay type: functional, cell-based;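 further: HEK-293T cells carrying an NF-kB luciferase reporter; cells exposed to compound for about 14 hours before viability readout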
[3] = molecular target: Serine/threonine-protein phosphatase (Homo sapiens, UniProt Q9BPW0); assay: inhibition of protein phosphatase 5 activity – biochemical, fluorescence, dose response (AID 2395)
Serine/threonine-protein phosphatase, sequence (Q9BPW0 whole entry): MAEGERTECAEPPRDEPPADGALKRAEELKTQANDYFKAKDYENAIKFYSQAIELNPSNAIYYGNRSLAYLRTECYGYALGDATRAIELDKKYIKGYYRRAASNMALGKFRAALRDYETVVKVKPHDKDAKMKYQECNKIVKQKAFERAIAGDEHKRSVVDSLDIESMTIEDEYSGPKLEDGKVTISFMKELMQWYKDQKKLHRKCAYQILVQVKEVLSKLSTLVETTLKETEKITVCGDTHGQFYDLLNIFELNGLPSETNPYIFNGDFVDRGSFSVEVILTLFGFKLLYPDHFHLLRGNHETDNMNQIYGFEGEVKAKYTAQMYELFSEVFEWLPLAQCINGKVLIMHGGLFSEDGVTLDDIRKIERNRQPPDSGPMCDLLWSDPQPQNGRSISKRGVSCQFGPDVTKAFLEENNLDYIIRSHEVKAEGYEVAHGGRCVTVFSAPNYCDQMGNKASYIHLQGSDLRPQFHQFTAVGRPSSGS

Caspase-3 = molecular target: T3, Caspase-3 (Homo sapiens, UniProt P42574); assay: SAR Analysis of small molecule inhibitors of Sentrin-specific proteases (SENPs) using a Caspase-3 Selectivity assay. [Related pubchem assays (depositor defined):AID2540, AID2599, AID434973, AID489001]; assay type: functional
T3 sequence (P42574 whole entry): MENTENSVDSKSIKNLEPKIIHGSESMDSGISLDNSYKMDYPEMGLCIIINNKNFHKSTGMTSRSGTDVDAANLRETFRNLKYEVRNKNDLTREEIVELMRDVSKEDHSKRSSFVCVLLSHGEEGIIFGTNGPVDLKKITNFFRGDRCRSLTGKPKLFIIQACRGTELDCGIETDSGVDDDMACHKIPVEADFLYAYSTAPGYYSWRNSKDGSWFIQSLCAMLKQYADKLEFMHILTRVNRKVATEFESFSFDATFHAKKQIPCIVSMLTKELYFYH

[4] = molecular target: Cyclin-dependent kinase 8 (Homo sapiens, UniProt P49336); assay: Navigating the Kinome. Panel member name: CDK8; assay type: functional
[5] = molecular target: Mitogen-activated protein kinase kinase kinase kinase 4 (Homo sapiens, UniProt O95819); assay type: functional
[6] = molecular target: Hepatocyte growth factor receptor (Homo sapiens, UniProt P08581); assay type: functional;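 further: kinase panel profiling across the kinome, with MET as the panel member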
[7] = molecular target: Serine/threonine-protein kinase MRCK alpha (Homo sapiens, UniProt Q5VT25); assay type: functional
[8] = molecular target: Fibroblast growth factor receptor 3 (Homo sapiens, UniProt P22607); assay type: functional
[9] = molecular target: Homeodomain-interacting protein kinase 4 (Homo sapiens, UniProt Q8NE63); assay type: functional
[10] = molecular target: Serine/threonine-protein kinase BRSK1 (Homo sapiens, UniProt Q8TDC3); assay type: functional;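 further: measured within a kinome-wide kinase panel, with the target listed as KIAA1811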
Serine/threonine-protein kinase BRSK1, sequence (Q8TDC3 whole entry): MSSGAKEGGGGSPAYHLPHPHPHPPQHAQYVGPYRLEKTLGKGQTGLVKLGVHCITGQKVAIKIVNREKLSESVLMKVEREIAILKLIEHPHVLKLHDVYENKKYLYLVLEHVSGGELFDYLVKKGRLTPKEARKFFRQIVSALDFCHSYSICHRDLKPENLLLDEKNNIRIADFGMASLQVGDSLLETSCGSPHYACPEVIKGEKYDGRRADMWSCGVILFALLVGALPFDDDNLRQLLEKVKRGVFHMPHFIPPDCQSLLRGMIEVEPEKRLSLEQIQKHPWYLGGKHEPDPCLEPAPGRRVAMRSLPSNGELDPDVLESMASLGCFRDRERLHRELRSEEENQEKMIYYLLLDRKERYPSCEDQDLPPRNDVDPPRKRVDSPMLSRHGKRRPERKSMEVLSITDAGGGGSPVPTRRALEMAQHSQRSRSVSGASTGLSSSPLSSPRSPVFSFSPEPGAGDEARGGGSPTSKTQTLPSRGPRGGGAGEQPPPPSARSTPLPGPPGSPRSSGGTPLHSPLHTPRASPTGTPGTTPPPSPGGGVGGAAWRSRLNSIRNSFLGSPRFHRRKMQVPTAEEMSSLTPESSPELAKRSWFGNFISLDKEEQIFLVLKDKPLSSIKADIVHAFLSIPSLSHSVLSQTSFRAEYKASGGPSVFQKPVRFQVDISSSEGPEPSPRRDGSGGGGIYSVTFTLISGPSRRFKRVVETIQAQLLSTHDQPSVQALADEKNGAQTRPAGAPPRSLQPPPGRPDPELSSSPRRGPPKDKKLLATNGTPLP

Aurora kinase A = Aurora kinase A (Homo sapiens, UniProt O14965); assay type: functional;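 further: value from the Navigating the Kinome kinase panel profiling, panel entry STK6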
[11] = molecular target: Tyrosine-protein kinase receptor UFO (Homo sapiens, UniProt P30530); assay type: functional
[12] = molecular target: Serine/threonine-protein kinase D3 (Homo sapiens, UniProt O94806); assay type: functional;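 further: determined within a kinase panel screen, with PRKCN as the panel member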
[13] = molecular target: Cell division cycle 7-related protein kinase (Homo sapiens, UniProt O00311); assay type: functional;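 further: value obtained from a kinome-wide kinase panel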
Cell division cycle 7-related protein kinase, sequence (O00311 whole entry): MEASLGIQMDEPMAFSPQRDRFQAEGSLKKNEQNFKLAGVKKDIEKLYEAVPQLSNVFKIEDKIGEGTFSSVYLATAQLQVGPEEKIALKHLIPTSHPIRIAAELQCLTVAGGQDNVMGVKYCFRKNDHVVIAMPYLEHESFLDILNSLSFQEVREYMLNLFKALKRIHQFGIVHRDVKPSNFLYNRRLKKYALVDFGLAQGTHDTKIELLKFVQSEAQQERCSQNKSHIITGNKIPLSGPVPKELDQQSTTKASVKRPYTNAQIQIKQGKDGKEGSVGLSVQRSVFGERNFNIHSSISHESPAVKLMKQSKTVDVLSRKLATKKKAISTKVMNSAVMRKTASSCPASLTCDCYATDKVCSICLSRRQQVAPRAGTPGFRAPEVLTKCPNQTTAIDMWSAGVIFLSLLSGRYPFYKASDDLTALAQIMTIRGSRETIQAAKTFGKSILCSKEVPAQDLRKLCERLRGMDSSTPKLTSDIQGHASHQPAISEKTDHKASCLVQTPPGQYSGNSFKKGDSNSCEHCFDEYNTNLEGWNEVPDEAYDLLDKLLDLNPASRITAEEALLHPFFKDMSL

[14] = molecular target: Death-associated protein kinase 3 (Homo sapiens, UniProt O43293); assay type: functional;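 further: measured as one member of a kinome-wide profiling panel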
Death-associated protein kinase 3, sequence (O43293 whole entry): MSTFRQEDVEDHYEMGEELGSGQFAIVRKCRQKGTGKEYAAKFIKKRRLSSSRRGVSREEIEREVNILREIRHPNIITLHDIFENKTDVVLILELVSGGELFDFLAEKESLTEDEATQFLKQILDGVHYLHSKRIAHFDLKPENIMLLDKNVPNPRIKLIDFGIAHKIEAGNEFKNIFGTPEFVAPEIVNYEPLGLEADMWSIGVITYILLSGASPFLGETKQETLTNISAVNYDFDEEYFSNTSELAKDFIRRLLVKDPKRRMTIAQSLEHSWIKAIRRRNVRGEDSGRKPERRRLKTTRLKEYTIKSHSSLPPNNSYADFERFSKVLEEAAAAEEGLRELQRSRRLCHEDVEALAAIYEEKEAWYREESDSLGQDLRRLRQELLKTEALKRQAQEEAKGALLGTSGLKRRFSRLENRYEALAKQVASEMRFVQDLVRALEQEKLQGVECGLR

[15] = molecular target: Tyrosine-protein kinase Blk (Homo sapiens, UniProt P51451); assay type: functional;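 further: obtained as one member of a kinome-wide kinase assay panel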
Tyrosine-protein kinase Blk, sequence (P51451 whole entry): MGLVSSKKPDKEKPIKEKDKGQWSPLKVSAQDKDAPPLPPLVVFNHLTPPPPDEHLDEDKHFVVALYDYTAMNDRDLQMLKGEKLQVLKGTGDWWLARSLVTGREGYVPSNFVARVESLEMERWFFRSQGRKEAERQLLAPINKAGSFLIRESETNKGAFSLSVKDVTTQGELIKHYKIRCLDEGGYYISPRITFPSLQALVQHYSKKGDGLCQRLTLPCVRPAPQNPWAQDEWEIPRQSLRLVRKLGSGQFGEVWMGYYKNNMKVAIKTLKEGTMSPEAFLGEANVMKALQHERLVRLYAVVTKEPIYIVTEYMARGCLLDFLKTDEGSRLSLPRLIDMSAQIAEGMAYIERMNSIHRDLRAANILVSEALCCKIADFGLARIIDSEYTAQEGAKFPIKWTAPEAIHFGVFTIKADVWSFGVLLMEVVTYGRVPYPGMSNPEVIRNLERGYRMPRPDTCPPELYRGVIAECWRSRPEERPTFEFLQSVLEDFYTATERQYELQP

[16] = molecular target: Casein kinase II subunit alpha (Homo sapiens, UniProt P68400); assay type: functional
[17] = molecular target: Lymphokine-activated killer T-cell-originated protein kinase (Homo sapiens, UniProt Q96KB5); assay type: functional;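 further: value comes from a kinase panel screen in which TOPK was one of the panel members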
[18] = molecular target: cAMP-dependent protein kinase catalytic subunit alpha (Homo sapiens, UniProt P17612); assay type: functional
[19] = molecular target: Platelet-derived growth factor receptor alpha (Homo sapiens, UniProt P16234); assay: Navigating the Kinome. Panel member name: PDGFRA; assay type: functional
Platelet-derived growth factor receptor alpha, sequence (P16234 whole entry): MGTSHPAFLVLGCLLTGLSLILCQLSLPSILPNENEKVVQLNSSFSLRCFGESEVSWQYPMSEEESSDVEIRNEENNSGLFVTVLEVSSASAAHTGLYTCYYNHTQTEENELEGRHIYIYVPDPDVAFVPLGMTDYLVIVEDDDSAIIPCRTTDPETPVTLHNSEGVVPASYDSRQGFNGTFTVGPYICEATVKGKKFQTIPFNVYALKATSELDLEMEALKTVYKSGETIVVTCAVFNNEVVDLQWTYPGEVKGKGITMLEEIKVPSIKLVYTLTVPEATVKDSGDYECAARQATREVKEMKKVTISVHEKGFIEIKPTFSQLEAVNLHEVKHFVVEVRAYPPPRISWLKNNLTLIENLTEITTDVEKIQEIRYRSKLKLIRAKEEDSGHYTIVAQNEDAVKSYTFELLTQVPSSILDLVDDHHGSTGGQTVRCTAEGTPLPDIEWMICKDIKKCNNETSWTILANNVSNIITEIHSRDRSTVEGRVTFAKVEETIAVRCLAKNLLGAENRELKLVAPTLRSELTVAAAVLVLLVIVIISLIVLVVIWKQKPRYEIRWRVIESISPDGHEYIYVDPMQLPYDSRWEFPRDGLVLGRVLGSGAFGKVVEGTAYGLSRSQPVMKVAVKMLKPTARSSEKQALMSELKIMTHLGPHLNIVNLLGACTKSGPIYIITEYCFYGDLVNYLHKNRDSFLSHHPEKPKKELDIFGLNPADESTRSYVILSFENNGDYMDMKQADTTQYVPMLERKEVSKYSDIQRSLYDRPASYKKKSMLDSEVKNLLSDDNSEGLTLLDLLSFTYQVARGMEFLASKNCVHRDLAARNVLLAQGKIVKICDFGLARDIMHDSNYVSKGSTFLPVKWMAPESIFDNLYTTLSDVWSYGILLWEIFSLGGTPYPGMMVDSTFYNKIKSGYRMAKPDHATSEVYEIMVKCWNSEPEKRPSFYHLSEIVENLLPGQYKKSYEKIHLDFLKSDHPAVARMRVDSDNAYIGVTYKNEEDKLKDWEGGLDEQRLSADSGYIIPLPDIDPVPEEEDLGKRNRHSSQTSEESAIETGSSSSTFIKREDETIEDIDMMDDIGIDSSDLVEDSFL

[20] = molecular target: Maternal embryonic leucine zipper kinase (Homo sapiens, UniProt Q14680); assay type: functional
Maternal embryonic leucine zipper kinase, sequence (Q14680 whole entry): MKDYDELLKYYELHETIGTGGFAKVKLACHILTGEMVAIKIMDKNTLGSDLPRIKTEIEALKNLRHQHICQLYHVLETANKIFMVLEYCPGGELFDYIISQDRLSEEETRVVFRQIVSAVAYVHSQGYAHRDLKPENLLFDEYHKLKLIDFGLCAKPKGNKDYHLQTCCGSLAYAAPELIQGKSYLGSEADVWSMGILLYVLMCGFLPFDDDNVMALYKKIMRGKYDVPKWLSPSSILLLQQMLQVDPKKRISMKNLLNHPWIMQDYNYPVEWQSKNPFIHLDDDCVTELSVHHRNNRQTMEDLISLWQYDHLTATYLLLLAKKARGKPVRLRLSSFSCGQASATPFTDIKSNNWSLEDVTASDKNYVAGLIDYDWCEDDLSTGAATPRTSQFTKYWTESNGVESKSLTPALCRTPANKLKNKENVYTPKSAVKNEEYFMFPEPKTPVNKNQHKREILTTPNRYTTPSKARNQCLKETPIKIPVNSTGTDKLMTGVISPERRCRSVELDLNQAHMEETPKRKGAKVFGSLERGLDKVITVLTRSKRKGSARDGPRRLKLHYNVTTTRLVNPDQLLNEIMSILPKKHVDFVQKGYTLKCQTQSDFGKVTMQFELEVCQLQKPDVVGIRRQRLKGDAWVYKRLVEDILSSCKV

[21] = molecular target: Tyrosine-protein kinase Fyn (Homo sapiens, UniProt P06241); assay type: functional

SMILES: Cc1c(NC(=O)C(C)OC(=O)c2ccc([N+](=O)[O-])s2)c(=O)n(-c2ccccc2)n1C (stereo not given)
- AC50 (Caspase-7): 17500 nM (active)
- AC50 (Caspase-8): 22800 nM (active)
- AC50 [1]: 34100 nM (active)

SMILES: COc1cc(Br)c(C(=O)c2nccc3cc(OC)c(OC)cc23)cc1OC
- IC50 [2]: > 80000 nM (inactive)
- IC50 [3]: 5920 nM (active)
- IC50 (Caspase-3): 23900 nM (active)

SMILES: CC(N)C1CCC(C(=O)Nc2ccnc3[nH]ccc23)CC1 (stereo not given)
- Ki [4]: 501 nM (active)
- Ki [5]: > 2510 nM (inactive)
- Ki [6]: > 2510 nM (inactive)
- Ki [7]: 3980 nM (active)
- Ki [8]: > 2000 nM (inactive)
- Ki [9]: > 7940 nM (inactive)
- Ki [10]: 3980 nM (active)
- Ki (Aurora kinase A): > 2000 nM (inactive)
- Ki [11]: > 2000 nM (inactive)
- Ki [12]: 398 nM (active)
- Ki [13]: > 1260 nM (inactive)
- Ki [14]: > 1260 nM (inactive)
- Ki [15]: > 1580 nM (inactive)
- Ki [16]: > 6310 nM (inactive)
- Ki [17]: 5010 nM (active)
- Ki [18]: 79.4 nM (active)
- Ki [19]: > 2510 nM (inactive)
- Ki [20]: > 1580 nM (inactive)
- Ki [21]: > 3980 nM (inactive)

Reference: ChEMBL document CHEMBL1201862, “PubChem BioAssay data set” (2004)
